Source: ChEMBL document CHEMBL5608253, “Discovery and Optimization of Aryl Piperidinone Ureas as Selective Formyl Peptide Receptor 2 Agonists” (ACS Med Chem Lett, 2024)

Key:
[1] = target: T1, N-formyl peptide receptor 2 (Homo sapiens, UniProt P25090); test: Agonist activity at human FPR2 expressed in CHO cells assessed as forskolin -induced cAMP level incubated for 30 mins in presence of IBMX by HTRF HiRange cAMP assay; type: functional, cell-based
T1 sequence (P25090 whole entry): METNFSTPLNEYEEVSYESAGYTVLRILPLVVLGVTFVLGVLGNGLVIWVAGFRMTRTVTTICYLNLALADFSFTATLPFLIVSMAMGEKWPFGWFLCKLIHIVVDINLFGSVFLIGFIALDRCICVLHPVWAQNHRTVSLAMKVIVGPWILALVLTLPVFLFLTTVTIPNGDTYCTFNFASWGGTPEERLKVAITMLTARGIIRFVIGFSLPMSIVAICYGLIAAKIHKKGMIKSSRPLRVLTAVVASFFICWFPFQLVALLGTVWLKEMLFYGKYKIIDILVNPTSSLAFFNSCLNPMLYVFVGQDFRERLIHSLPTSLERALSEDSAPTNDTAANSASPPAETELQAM

[2] = Agonist activity at rat FPR2 by cAMP assay
[3] = Permeability across apical to basal side in human Caco-2 cells; type: ADME, cell-based; settings: read-out: permeability
[4] = Permeability across basal to apical side in human Caco-2 cells; type: ADME, cell-based; settings: read-out: permeability
[5] = Protein binding in human plasma assessed as free fraction; type: ADME, cell-free
[6] = Protein binding in rat plasma assessed as free fraction; type: ADME, cell-free
Cytochrome P450 1A2 = target: T2, Cytochrome P450 1A2 (Homo sapiens, UniProt P05177); test: Inhibition of CYP1A2 (unknown origin); type: ADME
T2 sequence (P05177 whole entry): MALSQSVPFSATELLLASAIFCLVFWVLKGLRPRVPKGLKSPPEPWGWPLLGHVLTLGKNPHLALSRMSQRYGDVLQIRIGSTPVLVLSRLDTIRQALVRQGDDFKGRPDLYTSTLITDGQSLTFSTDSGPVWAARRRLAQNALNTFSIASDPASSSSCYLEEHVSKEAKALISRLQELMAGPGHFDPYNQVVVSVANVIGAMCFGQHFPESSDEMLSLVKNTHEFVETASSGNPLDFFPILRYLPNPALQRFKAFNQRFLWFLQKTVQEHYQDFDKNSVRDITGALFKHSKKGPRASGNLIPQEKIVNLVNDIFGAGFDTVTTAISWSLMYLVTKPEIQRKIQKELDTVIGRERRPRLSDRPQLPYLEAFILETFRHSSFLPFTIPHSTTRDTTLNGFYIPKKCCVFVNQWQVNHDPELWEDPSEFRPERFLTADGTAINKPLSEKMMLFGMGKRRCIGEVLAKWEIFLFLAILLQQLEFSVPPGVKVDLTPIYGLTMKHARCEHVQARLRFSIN

Cytochrome P450 2C9 = Cytochrome P450 2C9 (Homo sapiens, UniProt P11712); test: Inhibition of CYP2C9 (unknown origin); type: ADME
Sequence of Cytochrome P450 2C9 (P11712 whole entry): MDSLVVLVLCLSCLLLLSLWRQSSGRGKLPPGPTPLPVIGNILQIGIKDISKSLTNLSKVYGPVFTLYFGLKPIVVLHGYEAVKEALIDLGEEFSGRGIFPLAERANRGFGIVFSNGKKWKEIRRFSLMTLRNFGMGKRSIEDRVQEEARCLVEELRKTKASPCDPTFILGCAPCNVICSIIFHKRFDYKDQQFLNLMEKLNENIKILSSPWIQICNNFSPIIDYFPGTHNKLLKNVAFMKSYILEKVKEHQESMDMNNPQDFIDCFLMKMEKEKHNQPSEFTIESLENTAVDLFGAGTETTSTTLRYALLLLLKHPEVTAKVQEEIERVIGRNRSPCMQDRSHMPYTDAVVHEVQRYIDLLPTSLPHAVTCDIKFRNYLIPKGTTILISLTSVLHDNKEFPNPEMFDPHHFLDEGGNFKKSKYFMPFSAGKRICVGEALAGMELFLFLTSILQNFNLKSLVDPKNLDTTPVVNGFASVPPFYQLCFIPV

Cytochrome P450 2C19 = Cytochrome P450 2C19 (Homo sapiens, UniProt P33261); test: Inhibition of CYP2C19 (unknown origin); type: ADME
Sequence of Cytochrome P450 2C19 (P33261 whole entry): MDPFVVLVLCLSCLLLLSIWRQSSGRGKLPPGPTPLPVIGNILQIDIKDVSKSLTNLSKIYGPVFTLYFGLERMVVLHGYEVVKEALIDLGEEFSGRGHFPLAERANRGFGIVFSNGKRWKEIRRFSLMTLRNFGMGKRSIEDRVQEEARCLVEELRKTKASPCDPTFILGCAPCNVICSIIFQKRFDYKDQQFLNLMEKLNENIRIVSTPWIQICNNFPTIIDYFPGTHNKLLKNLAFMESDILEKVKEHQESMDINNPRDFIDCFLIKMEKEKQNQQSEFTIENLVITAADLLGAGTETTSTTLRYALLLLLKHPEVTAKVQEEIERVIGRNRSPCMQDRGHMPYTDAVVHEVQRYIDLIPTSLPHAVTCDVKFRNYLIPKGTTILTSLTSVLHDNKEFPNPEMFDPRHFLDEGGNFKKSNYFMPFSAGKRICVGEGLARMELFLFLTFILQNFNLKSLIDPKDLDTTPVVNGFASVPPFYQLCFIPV

Cytochrome P450 2D6 = Cytochrome P450 2D6 (Homo sapiens, UniProt P10635); test: Inhibition of CYP2D6 (unknown origin); type: ADME
Sequence of Cytochrome P450 2D6 (P10635 whole entry): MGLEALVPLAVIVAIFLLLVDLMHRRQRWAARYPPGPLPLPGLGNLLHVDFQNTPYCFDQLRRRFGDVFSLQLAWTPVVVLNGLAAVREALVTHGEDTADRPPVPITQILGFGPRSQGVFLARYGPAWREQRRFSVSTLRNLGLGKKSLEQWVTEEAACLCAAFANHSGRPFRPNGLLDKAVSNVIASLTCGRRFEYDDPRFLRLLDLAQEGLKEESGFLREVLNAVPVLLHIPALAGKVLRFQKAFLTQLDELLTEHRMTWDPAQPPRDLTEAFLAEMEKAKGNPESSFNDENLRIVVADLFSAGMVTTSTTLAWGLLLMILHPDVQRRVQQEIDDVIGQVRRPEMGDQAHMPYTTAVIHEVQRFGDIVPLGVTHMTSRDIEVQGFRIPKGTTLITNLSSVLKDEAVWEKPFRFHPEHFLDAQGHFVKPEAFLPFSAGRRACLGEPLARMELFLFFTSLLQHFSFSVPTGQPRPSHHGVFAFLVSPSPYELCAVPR

Cytochrome P450 3A4 = Cytochrome P450 3A4 (Homo sapiens, UniProt P08684); test: Inhibition of CYP3A4 (unknown origin); type: ADME
Sequence of Cytochrome P450 3A4 (P08684 whole entry): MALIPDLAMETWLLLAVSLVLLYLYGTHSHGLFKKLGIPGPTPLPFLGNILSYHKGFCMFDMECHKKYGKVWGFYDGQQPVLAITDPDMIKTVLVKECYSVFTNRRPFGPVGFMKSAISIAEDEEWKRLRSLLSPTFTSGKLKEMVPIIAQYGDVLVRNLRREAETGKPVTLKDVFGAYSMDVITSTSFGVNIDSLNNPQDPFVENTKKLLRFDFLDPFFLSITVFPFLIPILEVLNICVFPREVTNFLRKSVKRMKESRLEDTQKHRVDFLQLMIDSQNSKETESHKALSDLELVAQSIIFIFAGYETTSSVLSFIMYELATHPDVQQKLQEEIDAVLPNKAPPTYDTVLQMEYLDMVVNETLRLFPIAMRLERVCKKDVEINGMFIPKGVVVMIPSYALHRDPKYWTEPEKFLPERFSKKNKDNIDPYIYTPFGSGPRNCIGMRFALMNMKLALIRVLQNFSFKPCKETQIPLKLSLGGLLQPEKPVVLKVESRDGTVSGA

[7] = Cmax in rat at 3 mg/kg, po; type: ADME, organism-based; settings: in vivo
[8] = AUC (total) in rat at 3 mg/kg, po; type: ADME, organism-based; settings: in vivo
Rattus norvegicus = test: Anti-inflammatory activity in LPS-treated rat model assessed as increase in IL-10 level at 10 mg/kg measured after 2 hrs relative to control; type: functional
[9] = Drug concentration in plasma of LPS-treated rat model at 10 mg/kg measured after 2 hrs; type: ADME, organism-based

| Structure (SMILES) | EC50 [1] | EC50 [2] | Papp A→B [3] | Papp B→A [4] | fraction unbound [5] | fraction unbound [6] | INH (Cytochrome P450 1A2) | INH (Cytochrome P450 2C9) | INH (Cytochrome P450 2C19) | INH (Cytochrome P450 2D6) | INH (Cytochrome P450 3A4) | Cmax [7] | AUC [8] | Activity (Rattus norvegicus) | concentration at 2 h [9] |
| --- | --- | --- | --- | --- | --- | --- | --- | --- | --- | --- | --- | --- | --- | --- | --- |
| CS(=O)(=O)Nc1ccccc1-c1ccc(N2CCC[C@@H](NC(=O)Nc3ccc(C(F)(F)F)nc3)C2=O)cc1 | 10 nM | – | – | – | – | – | – | – | – | – | – | – | – | – | – |
| NC(=O)c1ccccc1-c1ccc(N2CCC[C@@H](NC(=O)Nc3ccc(C(F)(F)F)cc3)C2=O)cc1 | 2.8 nM | – | – | – | – | – | – | – | – | – | – | – | – | – | – |
| CS(=O)(=O)Nc1ccccc1-c1ccc(N2CCC[C@@H](NC(=O)Nc3ccc(Cl)cc3)C2=O)cc1 | 0.15 nM | 0.4 nM | < 1.5 ×10⁻⁶ cm/s | 41.8 ×10⁻⁶ cm/s | 0.02 | 0.01 | > 10 µM | > 10 µM | > 10 µM | > 10 µM | > 10 µM | 300 nM | 1.13 µM·h | 140% | 490 nM |
| CS(=O)(=O)Nc1ccccc1-c1ccc(N2CCC[C@@H](NC(=O)Nc3ccc(Cl)cc3F)C2=O)cc1 | 0.2 nM | 0.6 nM | 4.4 ×10⁻⁶ cm/s | 29.1 ×10⁻⁶ cm/s | 0.03 | 0.03 | > 10 µM | > 10 µM | > 10 µM | > 10 µM | > 10 µM | 610 nM | 2.7 µM·h | 128% | 1700 nM |
| CS(=O)(=O)Nc1ccccc1-c1ccc(N2CCC[C@@H](NC(=O)Nc3ccc(C(F)(F)F)cn3)C2=O)cc1 | 4.5 nM | – | – | – | – | – | – | – | – | – | – | – | – | – | – |
| CS(=O)(=O)Nc1ccccc1-c1ccc(N2CCC[C@@H](NC(=O)Nc3ccc(C(F)(F)F)cc3)C2=O)cc1 | 0.14 nM | 0.5 nM | < 1.5 ×10⁻⁶ cm/s | 32.5 ×10⁻⁶ cm/s | 0.01 | 0.01 | > 10 µM | > 10 µM | > 10 µM | > 10 µM | > 10 µM | 110 nM | 0.45 µM·h | 183% | 610 nM |
| CS(=O)(=O)Nc1ccccc1-c1ccc(N2CCC[C@@H](NC(=O)Nc3ccc(C(F)(F)F)cc3F)C2=O)cc1 | 0.6 nM | – | – | – | – | – | – | – | – | – | – | – | – | – | – |
| COc1cnc(NC(=O)N[C@@H]2CCCN(c3ccc(-c4ccccc4NS(C)(=O)=O)cc3)C2=O)c(F)c1 | – | – | 11 ×10⁻⁶ cm/s | 44 ×10⁻⁶ cm/s | 0.12 | 0.08 | > 10 µM | > 10 µM | > 10 µM | > 10 µM | > 10 µM | 830 nM | 1.7 µM·h | – | – |
| COc1ccc(NC(=O)N[C@@H]2CCCN(c3ccc(-c4ccccc4NS(C)(=O)=O)cc3)C2=O)cc1 | 0.3 nM | – | – | – | – | – | – | – | – | – | – | – | – | – | – |
| CS(=N)(=O)c1ccccc1-c1ccc(N2CCC[C@@H](NC(=O)Nc3ccc(C(F)(F)F)cc3)C2=O)cc1 (stereo in doubt; 9) | 1.6 nM | – | – | – | – | – | – | – | – | – | – | – | – | – | – |
| CS(=N)(=O)c1ccccc1-c1ccc(N2CCC[C@@H](NC(=O)Nc3ccc(C(F)(F)F)cc3)C2=O)cc1 (stereo in doubt; 10) | 9 nM | – | – | – | – | – | – | – | – | – | – | – | – | – | – |
